From patent publication US9029593B2, “Method for manufacturing spilanthol and intermediate manufacturing product therefor” (Takasago International Corporation, priority 2009, dated 2015)
Entries after “also recorded” stand apart in the source; their conditions may differ.

Assays:
[1] = Thermal stability evaluation of crude product at 180° C. (GC, hexadecane internal standard); format: physicochemical; settings: crude product before distillation, stirring at 180° C. in a stream of nitrogen, after 3 hours, GC area ratio vs hexadecane
Experimental: The crude product of N-isobutyl-2,6,8-decatrienamide obtained in Example 2 before the distillation and the crude product obtained in Comparative Example 1 were compared as follows in terms of thermal stability at 180° C. assuming distillation at high temperature.
In a stream of nitrogen, 1 g of each of the crude products was put into a flask together with 0.1 g of hexadecane as an internal standard substance, followed by stirring at 180° C. for […]. By gas chromatography, the area ratio of N-isobutyl-2,6,8-decatrienamide was compared with the area ratio of the internal standard substance to measure the remaining percentage of N-isobutyl-2,6,8-decatrienamide.

[2] = Sensory evaluation of aqueous solutions containing 10 ppm of N-isobutyl-2,6,8-decatrienamide; format: in vivo; settings: aqueous solution containing 10 ppm
Experimental: The sensory evaluation was performed using aqueous solutions respectively containing 10 ppm of N-isobutyl-2,6,8-decatrienamide obtained in Example 2 and Comparative Example 1.

Structure (SMILES) | remaining percentage of N-isobutyl-2,6,8-decatrienamide [1] [%] | Sensory evaluation (numbing and astringent actions) [2]
CC=CC=CCCC=CC(=O)NCC(C)C [Comparative Example 1, N-isobutyl-2,6,8-decatrienamide, reference compound] | 89 | –
CC=CC=CCC/C=C/C(=O)NCC(C)C (racemic) [Example 2, N-isobutyl-2,6,8-decatrienamide] | 98 | excellent numbing and astringent actions; also recorded: clear and strong
